Each structure is given as a SMILES string. Like-named read-outs stand apart in the source and are kept apart here.

In general, inhibition refers to the change of the read-out against control, counted positive when it falls. By Ki is commonly meant the equilibrium dissociation constant of an inhibitor or competing ligand from its target.

One test deals with T1, receptors D4.4 (Homo sapiens, UniProt P21917).
T1 sequence (P21917 1-419): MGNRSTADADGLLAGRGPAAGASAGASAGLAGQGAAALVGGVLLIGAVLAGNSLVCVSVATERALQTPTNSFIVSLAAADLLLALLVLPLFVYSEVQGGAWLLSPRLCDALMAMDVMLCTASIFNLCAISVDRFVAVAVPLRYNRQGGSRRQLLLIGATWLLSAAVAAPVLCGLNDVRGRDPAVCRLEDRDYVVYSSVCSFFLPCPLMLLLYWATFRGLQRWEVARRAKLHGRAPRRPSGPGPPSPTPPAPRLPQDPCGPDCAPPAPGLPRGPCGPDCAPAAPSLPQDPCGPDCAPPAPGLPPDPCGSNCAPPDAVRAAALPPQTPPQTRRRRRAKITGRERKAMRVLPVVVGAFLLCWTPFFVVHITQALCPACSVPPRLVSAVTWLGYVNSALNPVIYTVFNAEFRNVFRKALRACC
The test is described as follows: Radioligand binding assay, dopaminergic D4 (D4.4) receptors. The following applies: test compound 1×10^−6 M. The gist of the method: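 Competition radioligand binding at human D2, D3 and D4.4 receptors, detected by scintillation counting; nonspecific binding defined with excess unlabelled ligand. Results as percent inhibition of control specific binding; IC50 by Hill-equation nonlinear regression; Ki via Cheng-Prusoff, with radioligand KD from Scatchard plot.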

A further test addresses T2, 5-HT6 receptor (Homo sapiens, UniProt P50406).
T2 construct: purchased PerkinElmer
The test is described as follows: Radioligand binding assay, serotoninergic 5-HT6 receptors. The following applies: for inhibition at 1 µM: binding assay result in %, Table 5a; for Ki: read-out: Inhibition constants Ki, 5-HT6. The gist of the method:
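Values are Ki from Cheng–Prusoff, taking IC50 from Hill nonlinear regression of competition curves and KD from a Scatchard plot. Specific binding was total minus binding with excess unlabelled ligand. Radioligand displacement was detected by scintillation counting, and data were also reported as percent of control specific binding.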

The next test has as its target T3, 5-HT7 receptor (Homo sapiens, UniProt P34969).
T3 construct: purchased PerkinElmer
The test is described as follows: Radioligand binding assay, serotoninergic 5-HT7 receptors. The following applies: binding assay result in %, Table 5a. An outline of the steps: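 Competition binding at human 5-HT7 receptors with a radioligand, detected by scintillation counting; non-specific binding was defined with excess unlabelled ligand. IC50 came from Hill-equation fits of competition curves, and Ki from Cheng–Prusoff using radioligand concentration and Scatchard-derived KD.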

Another test concerns the target T4, α2C adrenergic receptors (Homo sapiens, UniProt P18825).
T4 construct: expressed in transfected cells; host or cells: CHO cells
T4 sequence (P18825 1-462): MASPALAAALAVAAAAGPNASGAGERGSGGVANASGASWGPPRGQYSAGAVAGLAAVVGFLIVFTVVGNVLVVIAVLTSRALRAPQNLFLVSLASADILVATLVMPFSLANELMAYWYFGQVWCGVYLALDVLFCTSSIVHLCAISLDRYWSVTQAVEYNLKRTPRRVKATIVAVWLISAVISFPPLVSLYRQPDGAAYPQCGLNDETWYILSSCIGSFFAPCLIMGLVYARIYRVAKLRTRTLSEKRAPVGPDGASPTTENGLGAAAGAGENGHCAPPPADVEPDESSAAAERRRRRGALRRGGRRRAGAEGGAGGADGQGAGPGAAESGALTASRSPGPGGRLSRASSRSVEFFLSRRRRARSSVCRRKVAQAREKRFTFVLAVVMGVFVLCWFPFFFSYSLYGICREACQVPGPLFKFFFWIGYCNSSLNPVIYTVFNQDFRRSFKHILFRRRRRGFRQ
Nature of the test: Radioligand binding assay, adrenergic α2C receptors. The following applies: test compound 1×10^−6 M. An outline of the steps:
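Competitive radioligand binding at human α2C receptors, with scintillation counting. Nonspecific binding defined with excess unlabelled ligand; results given as % inhibition of control specific binding. IC50 from Hill-equation fits of competition curves; Ki via Cheng-Prusoff using radioligand concentration and Scatchard-derived KD.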

Test [1] addresses 5-HT2A serotoninergic receptors (Homo sapiens, UniProt P28223). Nature of the test: Cellular functional assay, 5-HT2A serotoninergic receptors. It is filed as cell-based. The gist of the method:
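Response expressed as percent of control specific agonist response; EC50 or IC50 from Hill-equation non-linear regression on mean replicate values. For antagonists, apparent Kb derived by modified Cheng-Prusoff using reference agonist concentration and its EC50.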

Test [2] concerns the target 5-HT6 serotoninergic receptors (Homo sapiens, UniProt P50406). Nature of the test: Cellular functional assay, 5-HT6 serotoninergic receptors. The following applies: agonist mode; percent of control specific agonist response. It is filed as cell-based. An outline of the steps: (§1)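 Responses expressed as percent of control specific agonist response; EC50 or IC50 from Hill-equation nonlinear fits of mean replicate concentration-response curves. For antagonists, Kb derived by modified Cheng-Prusoff using reference agonist concentration and its EC50.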

The target in test [3] is 5-HT7 serotoninergic receptors (Homo sapiens, UniProt P34969). The test is described as follows: Cellular functional assay, 5-HT7 serotoninergic receptors. It is filed as cell-based. The following applies: agonist mode; percent of control specific agonist response. The gist of the method:
as §1

Setting [4] is: agonist mode, percent of control specific agonist response.

T3 sequence (P34969 whole entry): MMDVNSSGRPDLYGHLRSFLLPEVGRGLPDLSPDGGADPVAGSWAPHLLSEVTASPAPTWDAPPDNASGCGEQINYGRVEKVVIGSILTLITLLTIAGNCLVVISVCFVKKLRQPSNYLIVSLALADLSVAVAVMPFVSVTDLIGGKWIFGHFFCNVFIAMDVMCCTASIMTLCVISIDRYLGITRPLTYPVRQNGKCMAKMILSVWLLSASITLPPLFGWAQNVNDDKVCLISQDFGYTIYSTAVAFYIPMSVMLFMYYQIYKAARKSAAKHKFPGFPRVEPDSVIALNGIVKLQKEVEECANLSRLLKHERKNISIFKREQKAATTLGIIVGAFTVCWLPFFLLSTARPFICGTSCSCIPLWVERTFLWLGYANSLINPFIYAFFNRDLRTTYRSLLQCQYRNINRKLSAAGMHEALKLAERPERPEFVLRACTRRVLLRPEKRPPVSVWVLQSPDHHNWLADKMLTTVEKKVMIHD
Sequence of 5-HT7 serotoninergic receptors (P34969 whole entry): as above
T2 sequence (P50406 whole entry): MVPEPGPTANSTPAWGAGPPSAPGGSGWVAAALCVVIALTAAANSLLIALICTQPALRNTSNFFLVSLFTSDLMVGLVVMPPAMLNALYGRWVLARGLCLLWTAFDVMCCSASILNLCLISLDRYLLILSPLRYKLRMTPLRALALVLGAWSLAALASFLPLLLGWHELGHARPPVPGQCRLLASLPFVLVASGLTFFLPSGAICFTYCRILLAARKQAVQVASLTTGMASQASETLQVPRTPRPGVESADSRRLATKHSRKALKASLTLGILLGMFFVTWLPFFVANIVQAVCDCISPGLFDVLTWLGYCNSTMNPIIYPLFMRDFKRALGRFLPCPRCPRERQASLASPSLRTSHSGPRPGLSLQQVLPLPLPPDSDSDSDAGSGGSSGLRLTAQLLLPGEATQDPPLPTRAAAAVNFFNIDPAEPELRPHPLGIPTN
Sequence of 5-HT6 serotoninergic receptors (P50406 whole entry): as above
Sequence of 5-HT2A serotoninergic receptors (P28223 whole entry): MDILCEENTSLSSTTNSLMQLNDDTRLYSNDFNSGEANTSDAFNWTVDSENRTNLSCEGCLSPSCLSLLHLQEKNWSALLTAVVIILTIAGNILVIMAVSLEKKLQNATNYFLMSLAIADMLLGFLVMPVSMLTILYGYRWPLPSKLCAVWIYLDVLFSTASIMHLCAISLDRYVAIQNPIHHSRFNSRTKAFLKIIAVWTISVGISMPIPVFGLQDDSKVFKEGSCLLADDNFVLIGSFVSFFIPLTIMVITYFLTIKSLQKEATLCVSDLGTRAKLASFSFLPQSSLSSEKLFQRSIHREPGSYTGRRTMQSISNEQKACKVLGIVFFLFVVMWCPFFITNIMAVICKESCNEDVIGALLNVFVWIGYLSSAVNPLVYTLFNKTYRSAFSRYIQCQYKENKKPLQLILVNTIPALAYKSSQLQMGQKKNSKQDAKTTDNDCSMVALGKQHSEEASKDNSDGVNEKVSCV

With `O=S(=O)(N[C@H]1CCN(CCCc2noc3cc(F)ccc23)C1)c1cc2ccccc2o1` [Compound 215, N-[(3S)-1-[3-(6-Fluoro-1,2-benzoxazol-3-yl)propyl]pyrrolidin-3-yl]benzo-furan-2-sulphonamide], the inhibition at 1 µM on receptors D4.4 was found to be 88%; at 5-HT6 receptor, 93%; on 5-HT7 receptor, 98%; on α2C adrenergic receptors, 66%. In addition, on 5-HT6 receptor, the Ki was determined as 21 nM. Moreover, the “5-HT2A ag [%]” value in test [1] (setting [4]) is on record as −2%. Also, in test [2], the “5-HT6 ag [%]” value is recorded as −2%. Moreover, the “5-HT7 ag [%]” value in test [3] came out at 0%.

On to `O=S(=O)(NC1CCN(CCCc2noc3cc(F)ccc23)C1)c1cc2ccccc2o1` (stereo not shown) [Compound 216, N-[1-[3-(6-Fluoro-1,2-benzoxazol-3-yl)propyl]pyrrolidin-3-yl]benzofuran-2-sulphonamide], for which the inhibition at 1 µM on receptors D4.4 worked out at 87%; on 5-HT6 receptor, 97%; at 5-HT7 receptor it was 99%; on α2C adrenergic receptors it was 80%. In addition, the “5-HT2A ag [%]” value in test [1] (setting [4]) is −2%. The “5-HT6 ag [%]” value in test [2] is recorded as −5%. In test [3], the “5-HT7 ag [%]” value is −5%.

Take `Cc1cc(S(=O)(=O)NC2CCN(CCCc3noc4cc(F)ccc34)C2)c(C)s1` (stereo not shown) [Compound 221, N-[1-[3-(6-Fluoro-1,2-benzoxazol-3-yl)propyl]pyrrolidin-3-yl]-2,5-dimethyl-thiophene-3-sulphonamide]: the inhibition at 1 µM at receptors D4.4 stood at 93%; on 5-HT6 receptor it was 92%; at 5-HT7 receptor, 95%; on α2C adrenergic receptors it was 88%. For the same compound, in test [1], the “5-HT2A ag [%]” value is −2%. For the same compound, the “5-HT6 ag [%]” value in test [2] was −4%. In addition, the “5-HT7 ag [%]” value in test [3] amounted to 2%.

On to `Cc1cc(S(=O)(=O)N[C@@H]2CCN(CCCc3noc4cc(F)ccc34)C2)c(C)s1` [Compound 222, N-[(3R)-1-[3-(6-Fluoro-1,2-benzoxazol-3-yl)propyl]pyrrolidin-3-yl]-2,5-dimethyl-thiophene-3-sulphonamide], for which the inhibition at 1 µM is 98% on receptors D4.4, 94% at 5-HT6 receptor, 102% on 5-HT7 receptor and 77% at α2C adrenergic receptors. Further, the “5-HT2A ag [%]” value in test [1] is −1%. Besides, the “5-HT6 ag [%]” value in test [2] is given as −1%. In test [3], the “5-HT7 ag [%]” value is reported as −1%.

For the compound `Cc1cc(S(=O)(=O)N[C@H]2CCN(CCCc3noc4cc(F)ccc34)C2)c(C)s1` [Compound 223, N-[(3S)-1-[3-(6-Fluoro-1,2-benzoxazol-3-yl)propyl]pyrrolidin-3-yl]-2,5-dimethyl-thiophene-3-sulphonamide], the inhibition at 1 µM on receptors D4.4 stood at 92%; on 5-HT6 receptor, 94%; on 5-HT7 receptor, 100%; at α2C adrenergic receptors, 60%. Besides, the “5-HT2A ag [%]” value in test [1] amounted to 0%. Further, the “5-HT6 ag [%]” value in test [2] is given as −1%. Moreover, the “5-HT7 ag [%]” value in test [3] was found to be 0%.

As to `O=S(=O)(N[C@@H]1CCN(CCCc2noc3cc(F)ccc23)C1)c1csc2ccccc12` [Compound 224, N-[(3R)-1-[3-(6-Fluoro-1,2-benzoxazol-3-yl)propyl]pyrrolidin-3-yl]benzothiophene-3-sulphonamide], the inhibition at 1 µM at receptors D4.4 worked out at 101%; at 5-HT6 receptor it was 99%; at 5-HT7 receptor, 103%; on α2C adrenergic receptors it was 79%. Besides, the Ki on 5-HT6 receptor stood at 4 nM. Further, in test [1] (setting [4]), the “5-HT2A ag [%]” value is −2%. The “5-HT6 ag [%]” value in test [2] is listed as −1%. The “5-HT7 ag [%]” value in test [3] is −1%.

For the compound `O=S(=O)(N[C@H]1CCN(CCCc2noc3cc(F)ccc23)C1)c1csc2ccccc12` [Compound 225, N-[(3S)-1-[3-(6-Fluoro-1,2-benzoxazol-3-yl)propyl]pyrrolidin-3-yl]benzothiophene-3-sulphonamide], the inhibition at 1 µM came out at 91% on receptors D4.4, 99% on 5-HT6 receptor, 100% on 5-HT7 receptor and 80% at α2C adrenergic receptors. Besides, on 5-HT6 receptor, the Ki was 1.6 nM. The “5-HT2A ag [%]” value in test [1] (setting [4]) is listed as −1%. Also, the “5-HT6 ag [%]” value in test [2] is 1%. In test [3], the “5-HT7 ag [%]” value is recorded as 0%.

Consider `Cc1ccc2sc(S(=O)(=O)NC3CCN(CCCc4noc5cc(F)ccc45)C3)cc2c1` (stereo not shown) [Compound 226, N-[1-[3-(6-Fluoro-1,2-benzoxazol-3-yl)propyl]pyrrolidin-3-yl]-5-methylbenzothiophene-2-sulphonamide], for which the inhibition at 1 µM is 69% on receptors D4.4, 92% on 5-HT6 receptor, 91% at 5-HT7 receptor and 86% on α2C adrenergic receptors. Moreover, the “5-HT2A ag [%]” value in test [1] (setting [4]) was −1%. Further, the “5-HT6 ag [%]” value in test [2] is on record as −5%. The “5-HT7 ag [%]” value in test [3] is on record as −2%.

As to `COc1ccc2cc(S(=O)(=O)NC3CCN(CCCc4noc5cc(F)ccc45)C3)ccc2c1` (stereo not shown) [Compound 227, N-[1-[3-(6-Fluoro-1,2-benzoxazol-3-yl)propyl]pyrrolidin-3-yl]-6-methoxy-naphthalene-2-sulphonamide], the inhibition at 1 µM was found to be 88% at receptors D4.4, 94% at 5-HT6 receptor, 91% on 5-HT7 receptor and 90% on α2C adrenergic receptors. In addition, the “5-HT2A ag [%]” value in test [1] (setting [4]) is −2%. The “5-HT6 ag [%]” value in test [2] was −4%. The “5-HT7 ag [%]” value in test [3] was −2%.

For the compound `Cc1ccc2sc(S(=O)(=O)N[C@@H]3CCN(CCCc4noc5cc(F)ccc45)C3)cc2c1` [Compound 228, N-[(3R)-1-[3-(6-Fluoro-1,2-benzoxazol-3-yl)propyl]pyrrolidin-3-yl]-5-methyl-benzothiophene-2-sulphonamide], the inhibition at 1 µM worked out at 68% on receptors D4.4, 100% at 5-HT6 receptor, 92% at 5-HT7 receptor and 95% on α2C adrenergic receptors. Also, the Ki on 5-HT6 receptor amounted to 14 nM. In test [1] (setting [4]), the “5-HT2A ag [%]” value turned out to be 1%. Besides, the “5-HT6 ag [%]” value in test [2] is −2%. Moreover, the “5-HT7 ag [%]” value in test [3] is 0%.

Consider `O=S(=O)(NC1CCN(CCCc2noc3cc(F)ccc23)C1)c1cc2ccc(F)cc2s1` (stereo not shown) [Compound 234, 6-Fluoro-N-[1-[3-(6-fluoro-1,2-benzoxazol-3-yl)propyl]pyrrolidin-3-yl]benzothiophene-2-sulphonamide], for which the inhibition at 1 µM on receptors D4.4 is 70%; at 5-HT6 receptor, 98%; on 5-HT7 receptor, 97%; on α2C adrenergic receptors, 90%. Further, the “5-HT2A ag [%]” value in test [1] is recorded as 1%. Also, in test [2], the “5-HT6 ag [%]” value is given as −1%. In addition, the “5-HT7 ag [%]” value in test [3] was determined as 0%.

Turning to `O=S(=O)(NCC1CCN(CCCc2noc3cc(F)ccc23)C1)c1cccc2ccccc12` (stereo not shown) [Compound 239, N-[[1-[3-(6-Fluoro-1,2-benzoxazol-3-yl)propyl]pyrrolidin-3-yl]methyl]naphthalene-1-sulphonamide], the inhibition at 1 µM on receptors D4.4 came to 78%; on 5-HT6 receptor it was 97%; at 5-HT7 receptor, 92%; at α2C adrenergic receptors, 89%. Further, in test [1], the “5-HT2A ag [%]” value is on record as −2%. Also, in test [2], the “5-HT6 ag [%]” value is 2%. Further, in test [3], the “5-HT7 ag [%]” value is reported as 1%.

The values are drawn from patent US20140135310A1, “SULPHONAMIDE DERIVATIVES OF ALICYCLIC AMINES FOR THE TREATMENT OF CENTRAL NERVOUS SYSTEM DISEASES” (Adamed Sp. z o.o., priority 2011, published 2014).
